Earlier results in publication PMC6105164 (Cancer Chemotherapy and Pharmacology, 2018).

Assays:
[1] = test system: prenylation of RAS; set-up: method as in PMID 22020205, PMID 15084616, PMID 15459217; settings: cited from earlier work
[2] = test system: patients with KRAS mutations; set-up: method as in PMID 24024839, PMID 18316791, PMID 23182985; settings: cited from earlier work

Compound | activity in clinical trials [1] | efficacy [2]
Cn1cncc1[C@@](N)(c1ccc(Cl)cc1)c1ccc2c(c1)c(-c1cccc(Cl)c1)cc(=O)n2C [tipifarnib] | a little activity | 
panitumumab: EGF receptor inhibitor |  | a little efficacy
